Measured values from patent US9926354B2, “Amyloid precursor protein (APP) based Ã#-secretase inhibitor peptides, and methods of use” (UNIVERSITY OF SOUTH FLORIDA, priority 2014, dated 2018).

Key:
[1] = tested on: CHO cells over-expressing human Swedish mutant APP (CHO/APPswe); assay: Aβ and sAPPα production in cultured media of CHO/APPswe cells by ELISA; assay type: cell-based, Chinese hamster; conditions: 20 μg/mL, 24 hours
Procedure: Cell Culture—Chinese hamster ovary (CHO) cells engineered to express wild-type human APP (CHO/APPwt cells) or Swedish mutant human APP (CHO/APPswe cells) were kindly provided by Dr. Stefanie Hahn and Dr. Sascha Weggen (University of Heinrich Heine, Dusseldorf, Germany). As described previously (Obregon et al., 2012), these cells were cultured in Dulbecco's modified Eagle's medium (DMEM) with 10% fetal bovine serum (FBS), 1 mM sodium pyruvate, and 100 units/mL of penicillin and streptomycin.
To confirm the binding of APPsweBBP with BACE1, CHO/APPwt cells were plated in 8-well chambers (5×10^5/well), incubated with TAT-APPsweBBP-biotin or APPsweBBP-biotin at 20 μM for 30 minutes, fixed with 4% paraformaldehyde for 20 minutes, washed and permeabilized with 0.5% Triton X-100. Following application of blocking buffer, these cells were stained with mouse anti-BACE1 and rabbit anti-biotin antibodies overnight at 4° C. for immunocytochemistry analysis. In order to determine the inhibitory effects of TAT-APPsweBBP on BACE1-mediated APP β-cleavage and subsequent Aβ production, both CHO/APPwt and CHO/APPswe cells were plated in 24 well-plates (3×10^5/well) and treated with TAT-APPsweBBP at 0-20 μM for 24 hours. The cultured media were collected for Aβ analysis by enzyme-linked immunosorbent assay (ELISA) and sAPPα analysis by ELISA and Western blot (WB). Cell lysates were also prepared for analysis of APP amyloidogenic processing by WB.
ELISA—Mouse brains were homogenized in ice-cold lysis buffer for 30 seconds using a Minilys tissue homogenizer (Bertin Technologies, Montigny-le-Bretonneux, France) set at high speed, allowed to stand for 15 minutes at 4° C., and centrifuged at 15,000 rpm for 30 minutes. Soluble Aβ1-40/42 species and sAPPα were directly detected in cultured cell media or brain homogenates using the Aβ1-40/42 (Invitrogen) and sAPPα ELISA kits (IBL-America, Minneapolis, Minn., USA).
To further examine the ability of the Swedish mutant APP BACE1 binding peptide/Tat fusion peptides to decrease Aβ production, CHO cells overexpressing either human wild-type APP (CHO/APPwt cells) or Swedish mutant APP (hereinafter referred to as “CHO/APPswe cells”) are treated with a variety of APP-based BACE1 inhibitor peptides, as shown in Table 1 and Table 2. Aβ production is determined using ELISA.

BACE1 = BACE1 (Homo sapiens, UniProt P56817); assay: Binding to and cleavage by recombinant BACE1 (WB, IP); conditions: biotin-labeled peptide, recombinant BACE1, 4 hours
Sequence of BACE1 (P56817 46-501): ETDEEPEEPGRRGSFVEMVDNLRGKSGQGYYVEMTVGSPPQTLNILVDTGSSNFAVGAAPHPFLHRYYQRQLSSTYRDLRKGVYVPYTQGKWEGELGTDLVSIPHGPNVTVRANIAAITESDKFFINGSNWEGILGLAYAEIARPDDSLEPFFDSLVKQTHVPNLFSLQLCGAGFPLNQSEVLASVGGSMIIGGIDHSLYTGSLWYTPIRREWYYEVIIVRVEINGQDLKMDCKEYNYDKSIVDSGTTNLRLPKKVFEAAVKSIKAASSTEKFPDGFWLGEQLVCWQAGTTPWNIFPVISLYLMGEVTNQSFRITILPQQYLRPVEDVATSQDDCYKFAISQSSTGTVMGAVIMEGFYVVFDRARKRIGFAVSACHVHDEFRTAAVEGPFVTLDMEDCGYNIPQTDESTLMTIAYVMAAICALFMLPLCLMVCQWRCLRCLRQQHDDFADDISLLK
Procedure: Biotin-labeled TAT-APPsweBBP was incubated with or without recombinant BACE1 protein and examined by western blot (A). Full length TAT-APPsweBBP and β-cleaved TAT-APPsweBBP were clearly detected. Immunoprecipitation (IP) with anti-BACE1 antibody and subsequent WB with anti-biotin antibody (B) and IP with anti-biotin antibody and then WB with anti-BACE1 antibody (C) both reveal that TAT-APPsweBBP, but not TAT peptide, binds to BACE1. To further confirm TAT-APPswcBPP can bind to BACE1, human wild-type APP expressing CHO cells were incubated with biotin-labeled TAT-APPsweBBP or biotin-labeled APPsweBBP at 20 μM for 30 minutes, and then stained with anti-BACE1 or anti-biotin antibodies (D). […] In addition, these treated cells were further analyzed by IP with anti-biotin and subsequent WB with anti-BACE1 antibodies (E), with results showing that TAT-APPsweBBP strongly and specifically binds to BACE1.
In order to confirm that APPsweBBP containing the β-cleavage site could bind to and be consequently proteolyzed by BACE1, 10 μg of biotin-labeled TAT-APPsweBBP was incubated with or without 10 μL of recombinant BACE1 protein (1.0 U/mL) in BACE1 reaction buffer for 4 hours at 37° C. and then subjected to Western blot (WB) analysis as described previously (Rezai-Zadeh et al., 2005; Obregon et al., 2012). […]

5XFAD mice = assay: β-amyloid deposits in 5XFAD mouse brains (4G8 immunohistochemistry, image analysis); assay type: in vivo; conditions: 8 weeks i.p. treatment
Excerpt: Percentage of 4G8 immunoreactive areas in regions of interest (RSC, EC and H regions) was quantified by image analysis for each treatment group (B). Data are represented as mean±SD (n=10, 5 female/5 male).
5XFAD Mice—Transgenic AD mice [5XFAD; B6SJL-Tg(APPSwF1Lon,PSEN1*M146L*L286V) 6799Vas/Mmjax] at 2.5 months of age were obtained from the Jackson Laboratory (Bar Harbor, Me., USA) and housed and maintained in the Animal Facility of College of Medicine at University of South Florida. The mice at 3.5 months of age were treated with TAT-APPsweBBP, TAT peptide (100 nM/kg in 100 μl PBS) or PBS (100 μl) intraperitioneally (i.p.) daily for eight consecutive weeks. The mice were subjected to behavioral testing after 8 week-treatment and euthanized for immunohistochemical, ELISA and WB analysis after completing behavioral tests. All experiments involving mice were in compliance with the U.S. Department of Health and Human Services Guide for the Care and Use of Laboratory Animals and in accordance with the guidelines of the USF Institutional Animal Care and Use Committee.
Immunohistochemistry—Fixed cell cultures and brain sections were stained with indicated antibodies and then treated with donkey anti-mouse IgG conjugated with Alexa Fluor 488 (1:200) and goat anti-rabbit IgG conjugated with Alexa Fluor 594 (1:200; Invitrogen, Carlsbad, Calif., USA). […]

## YGRKKRRQRRR [TAT, reference compound]
[1]
  Secreted Aβ40 (ng/mg; mean ± SD): 66.71 ± 12.02 ng/mg
  Secreted Aβ42 (ng/mg; mean ± SD): 10.76 ± 2.12 ng/mg
  Secreted sAPPα (ng/mg; mean ± SD): 196.98 ± 17.77 ng/mg
BACE1
  binding to BACE1 protein (IP/WB): not observed
5XFAD mice
  percentage of 4G8 immunoreactive areas (β-amyloid plaques) in RSC, EC and H regions: no significant difference
